# Source: the CheMixHub viscosity set
# ± gives the uncertainty stated by the source.
# Test: xn = mol fraction of the nth substance listed
smiles,measurement,setting,value
C[N+](C)(C)CCO.[Cl-] + CN(CCO)CCO,viscosity,"293.15 K, 101 kPa, x1 = 0.091",54.54 ± 2.2 mPa·s
same,viscosity,"293.15 K, 101 kPa, x1 = 0.111",126.3 ± 5.6 mPa·s
same,viscosity,"293.15 K, 101 kPa, x1 = 0.143",139.8 ± 6.3 mPa·s
same,viscosity,"313.15 K, 101 kPa, x1 = 0.091",20.45 ± 0.86 mPa·s
same,viscosity,"313.15 K, 101 kPa, x1 = 0.111",40.89 ± 1.7 mPa·s
same,viscosity,"313.15 K, 101 kPa, x1 = 0.143",46.55 ± 2 mPa·s
Cc1ccc(C)cc1 + CO,viscosity,"293.15 K, 101 kPa, x1 = 0.0352",0.6087 ± 0.016 mPa·s
same,viscosity,"293.15 K, 101 kPa, x1 = 0.0758",0.6353 ± 0.017 mPa·s
same,viscosity,"293.15 K, 101 kPa, x1 = 0.1233",0.6635 ± 0.017 mPa·s
same,viscosity,"293.15 K, 101 kPa, x1 = 0.1795",0.6929 ± 0.018 mPa·s
same,viscosity,"293.15 K, 101 kPa, x1 = 0.247",0.7227 ± 0.019 mPa·s
same,viscosity,"293.15 K, 101 kPa, x1 = 0.3298",0.7509 ± 0.02 mPa·s
same,viscosity,"293.15 K, 101 kPa, x1 = 0.4336",0.7731 ± 0.021 mPa·s
same,viscosity,"293.15 K, 101 kPa, x1 = 0.5673",0.7803 ± 0.021 mPa·s
same,viscosity,"293.15 K, 101 kPa, x1 = 0.747",0.7526 ± 0.02 mPa·s
same,viscosity,"298.15 K, 101 kPa, x1 = 0.0352",0.5596 ± 0.015 mPa·s
same,viscosity,"298.15 K, 101 kPa, x1 = 0.0758",0.5732 ± 0.015 mPa·s
same,viscosity,"298.15 K, 101 kPa, x1 = 0.1233",0.5877 ± 0.015 mPa·s
same,viscosity,"298.15 K, 101 kPa, x1 = 0.1795",0.6031 ± 0.016 mPa·s
same,viscosity,"298.15 K, 101 kPa, x1 = 0.247",0.6191 ± 0.016 mPa·s
same,viscosity,"298.15 K, 101 kPa, x1 = 0.3298",0.6348 ± 0.017 mPa·s
same,viscosity,"298.15 K, 101 kPa, x1 = 0.4336",0.6483 ± 0.017 mPa·s
same,viscosity,"298.15 K, 101 kPa, x1 = 0.5673",0.656 ± 0.017 mPa·s
same,viscosity,"298.15 K, 101 kPa, x1 = 0.747",0.6489 ± 0.017 mPa·s
same,viscosity,"308.15 K, 101 kPa, x1 = 0.0352",0.4893 ± 0.013 mPa·s
same,viscosity,"308.15 K, 101 kPa, x1 = 0.0758",0.4993 ± 0.013 mPa·s
same,viscosity,"308.15 K, 101 kPa, x1 = 0.1233",0.5103 ± 0.013 mPa·s
same,viscosity,"308.15 K, 101 kPa, x1 = 0.1795",0.522 ± 0.014 mPa·s
same,viscosity,"308.15 K, 101 kPa, x1 = 0.247",0.5342 ± 0.014 mPa·s
same,viscosity,"308.15 K, 101 kPa, x1 = 0.3298",0.5465 ± 0.014 mPa·s
same,viscosity,"308.15 K, 101 kPa, x1 = 0.4336",0.558 ± 0.015 mPa·s
same,viscosity,"308.15 K, 101 kPa, x1 = 0.5673",0.5669 ± 0.015 mPa·s
same,viscosity,"308.15 K, 101 kPa, x1 = 0.747",0.5649 ± 0.015 mPa·s
same,viscosity,"318.15 K, 101 kPa, x1 = 0.0352",0.4296 ± 0.011 mPa·s
same,viscosity,"318.15 K, 101 kPa, x1 = 0.0758",0.4369 ± 0.011 mPa·s
same,viscosity,"318.15 K, 101 kPa, x1 = 0.1233",0.4449 ± 0.012 mPa·s
same,viscosity,"318.15 K, 101 kPa, x1 = 0.1795",0.4536 ± 0.012 mPa·s
same,viscosity,"318.15 K, 101 kPa, x1 = 0.247",0.4628 ± 0.012 mPa·s
same,viscosity,"318.15 K, 101 kPa, x1 = 0.3298",0.4725 ± 0.012 mPa·s
same,viscosity,"318.15 K, 101 kPa, x1 = 0.4336",0.4823 ± 0.013 mPa·s
same,viscosity,"318.15 K, 101 kPa, x1 = 0.5673",0.4899 ± 0.013 mPa·s
same,viscosity,"318.15 K, 101 kPa, x1 = 0.747",0.4933 ± 0.013 mPa·s
O=C(O)CCC(=O)O + CO,viscosity,"308.15 K, 101 kPa, x1 = 0.04258",0.8055 ± 0.021 mPa·s
same,viscosity,"308.15 K, 101 kPa, x1 = 0.05573",0.9556 ± 0.025 mPa·s
same,viscosity,"313.15 K, 101 kPa, x1 = 0.04258",0.7491 ± 0.02 mPa·s
same,viscosity,"313.15 K, 101 kPa, x1 = 0.05573",0.887 ± 0.024 mPa·s
same,viscosity,"318.15 K, 101 kPa, x1 = 0.04258",0.6981 ± 0.018 mPa·s
same,viscosity,"318.15 K, 101 kPa, x1 = 0.05573",0.8175 ± 0.022 mPa·s
same,viscosity,"323.15 K, 101 kPa, x1 = 0.04258",0.646 ± 0.017 mPa·s
same,viscosity,"323.15 K, 101 kPa, x1 = 0.05573",0.7603 ± 0.02 mPa·s
O=C(O)c1ccccc1C(=O)O + CO,viscosity,"308.15 K, 101 kPa, x1 = 0.0453",0.916 ± 0.0078 mPa·s
same,viscosity,"308.15 K, 101 kPa, x1 = 0.0538",1.001 ± 0.0084 mPa·s
same,viscosity,"308.15 K, 101 kPa, x1 = 0.0598",1.085 ± 0.009 mPa·s
same,viscosity,"308.15 K, 101 kPa, x1 = 0.0666",1.226 ± 0.01 mPa·s
same,viscosity,"308.15 K, 101.33 kPa, x1 = 0.0453",0.916 ± 0.024 mPa·s
same,viscosity,"308.15 K, 101.33 kPa, x1 = 0.06",1.085 ± 0.029 mPa·s
same,viscosity,"313.15 K, 101.33 kPa, x1 = 0.0453",0.8445 ± 0.022 mPa·s
same,viscosity,"313.15 K, 101.33 kPa, x1 = 0.06",1.009 ± 0.027 mPa·s
same,viscosity,"318.15 K, 101.33 kPa, x1 = 0.0453",0.777 ± 0.021 mPa·s
same,viscosity,"318.15 K, 101.33 kPa, x1 = 0.06",0.9326 ± 0.025 mPa·s
same,viscosity,"323.15 K, 101 kPa, x1 = 0.0453",0.7018 ± 0.0064 mPa·s
same,viscosity,"323.15 K, 101 kPa, x1 = 0.0538",0.79 ± 0.007 mPa·s
same,viscosity,"323.15 K, 101 kPa, x1 = 0.0598",0.8526 ± 0.0075 mPa·s
same,viscosity,"323.15 K, 101 kPa, x1 = 0.0666",0.906 ± 0.0083 mPa·s
same,viscosity,"323.15 K, 101.33 kPa, x1 = 0.0453",0.718 ± 0.019 mPa·s
same,viscosity,"323.15 K, 101.33 kPa, x1 = 0.06",0.8526 ± 0.023 mPa·s
c1ccc(Nc2ccccc2)cc1 + CO,viscosity,"298.15 K, 101 kPa, x1 = 0.03649",0.814 ± 0.021 mPa·s
same,viscosity,"298.15 K, 101 kPa, x1 = 0.06942",1.012 ± 0.025 mPa·s
same,viscosity,"298.15 K, 101.33 kPa, x1 = 0.04",0.814 ± 0.0057 mPa·s
same,viscosity,"298.15 K, 101.33 kPa, x1 = 0.0694",1.012 ± 0.0071 mPa·s
same,viscosity,"303.15 K, 101 kPa, x1 = 0.03649",0.739 ± 0.019 mPa·s
same,viscosity,"303.15 K, 101 kPa, x1 = 0.06942",0.9262 ± 0.023 mPa·s
same,viscosity,"303.15 K, 101.33 kPa, x1 = 0.04",0.739 ± 0.0052 mPa·s
same,viscosity,"303.15 K, 101.33 kPa, x1 = 0.0694",0.9262 ± 0.0065 mPa·s
same,viscosity,"308.15 K, 101 kPa, x1 = 0.03649",0.6818 ± 0.017 mPa·s
same,viscosity,"308.15 K, 101 kPa, x1 = 0.06942",0.8495 ± 0.021 mPa·s
same,viscosity,"308.15 K, 101.33 kPa, x1 = 0.04",0.6818 ± 0.0048 mPa·s
same,viscosity,"308.15 K, 101.33 kPa, x1 = 0.0694",0.8495 ± 0.0059 mPa·s
same,viscosity,"313.15 K, 101 kPa, x1 = 0.03649",0.6313 ± 0.016 mPa·s
same,viscosity,"313.15 K, 101 kPa, x1 = 0.06942",0.7809 ± 0.02 mPa·s
same,viscosity,"313.15 K, 101.33 kPa, x1 = 0.04",0.6313 ± 0.0044 mPa·s
same,viscosity,"313.15 K, 101.33 kPa, x1 = 0.0694",0.7809 ± 0.0055 mPa·s
same,viscosity,"318.15 K, 101 kPa, x1 = 0.03649",0.584 ± 0.015 mPa·s
same,viscosity,"318.15 K, 101 kPa, x1 = 0.06942",0.7151 ± 0.018 mPa·s
same,viscosity,"318.15 K, 101.33 kPa, x1 = 0.04",0.584 ± 0.0041 mPa·s
same,viscosity,"318.15 K, 101.33 kPa, x1 = 0.0694",0.7151 ± 0.005 mPa·s
Cc1ccc(C)cc1 + COC(=O)OC,viscosity,"298.15 K, 101.3 kPa, x2 = 0.1097",0.592 ± 0.008 mPa·s
same,viscosity,"298.15 K, 101.3 kPa, x2 = 0.1824",0.591 ± 0.008 mPa·s
same,viscosity,"298.15 K, 101.3 kPa, x2 = 0.2345",0.59 ± 0.008 mPa·s
same,viscosity,"298.15 K, 101.3 kPa, x2 = 0.2757",0.589 ± 0.008 mPa·s
same,viscosity,"298.15 K, 101.3 kPa, x2 = 0.3294",0.586 ± 0.008 mPa·s
same,viscosity,"298.15 K, 101.3 kPa, x2 = 0.3683",0.586 ± 0.008 mPa·s
same,viscosity,"298.15 K, 101.3 kPa, x2 = 0.5137",0.588 ± 0.008 mPa·s
same,viscosity,"298.15 K, 101.3 kPa, x2 = 0.6046",0.588 ± 0.008 mPa·s
same,viscosity,"298.15 K, 101.3 kPa, x2 = 0.7164",0.59 ± 0.008 mPa·s
same,viscosity,"298.15 K, 101.3 kPa, x2 = 0.8442",0.587 ± 0.008 mPa·s
CCCCCCCCN + COCCO,viscosity,"308.15 K, 101 kPa, x2 = 0.1894",1.275 ± 0.016 mPa·s
same,viscosity,"308.15 K, 101 kPa, x2 = 0.3445",1.474 ± 0.019 mPa·s
same,viscosity,"308.15 K, 101 kPa, x2 = 0.4739",1.614 ± 0.02 mPa·s
same,viscosity,"308.15 K, 101 kPa, x2 = 0.5835",1.667 ± 0.021 mPa·s
same,viscosity,"308.15 K, 101 kPa, x2 = 0.6777",1.67 ± 0.021 mPa·s
same,viscosity,"308.15 K, 101 kPa, x2 = 0.7592",1.609 ± 0.02 mPa·s
same,viscosity,"308.15 K, 101 kPa, x2 = 0.8307",1.556 ± 0.02 mPa·s
same,viscosity,"308.15 K, 101 kPa, x2 = 0.8937",1.482 ± 0.019 mPa·s
same,viscosity,"308.15 K, 101 kPa, x2 = 0.9498",1.379 ± 0.017 mPa·s
